Entries after “also recorded” stand apart in the source; their conditions may differ.
Legend:
CXCL-9 = CXCL-9 release by the colonocyte (ELISA); type: cell-based, human; conditions: IL-1β/IFN-γ, extracts subjected to digestion 100 μg/mL, cannabinoids 8 μM
Protocol: (§1) FIGS. 18A, 18B, 18C and 18D: Effect of the extracts 5 and 6 subjected to intestinal digestion (5d, 6d) and of the cannabinoids (CBD, CBG) on the release of inflammatory mediators (CXCL-9, CXCL-10, CCL-20, IL-15) by the colonocyte. The extracts (100 μg/mL) and the isolated molecules (8 μM) were used in the treatment concomitant with pro-inflammatory stimulation (IL-1β/IFN-γ), arbitrarily placed at 100% . * p<0.05; ** p<0.01; *** p<0.001 (one-way ANOVA test) vs IL-1β/IFN-γ. The data are the mean±SEM of at least three duplicate experiments.
(§2) Consequently, the effect of the extracts at the protein level, especially in the colonocyte, was evaluated by ELISA assays for inflammatory mediators selected starting from the transcriptional data. All mediators are regulated by NF-κB.

CXCL10 = CXCL10 secretion in undifferentiated CaCo-2 cells (colonocytes) under pro-inflammatory stimulation; type: cell-based, human; conditions: cannabinoids 8 μM; for CXCL-10 release: colonocyte, IL-1β/IFN-γ, Phase 3, extracts subjected to digestion 100 μg/mL; for CXCL10 secretion: colonocytes, 10 ng/mL IFNγ and 10 ng/mL IL-1β, 24 hours, extracts 100 μg/mL
Protocol: Firstly, the individual cannabinoids CBD and CBG in undifferentiated cells (colonocytes) were analysed by comparing two different pro-inflammatory mixtures, in order to simplify the pro-inflammatory stimulation and the activation pathways involved. The pro-inflammatory mixture 50 ng/mL TNFα, 10 ng/mL LPS, 50 ng/ml IFNγ and 25 ng/ml IL-1ß mimics an inflammatory disease with a bacterial aetiology and was compared with a less complex mixture, consisting of 10 ng/mL IFNγ and 10 ng/mL IL-1β, deprived of the “bacterial” component, therefore more characteristic of an advanced inflammatory disease.
From the analysis of the pro-inflammatory genes most regulated by the application of the pro-inflammatory mixture, chemokines of the CXC family particularly over-expressed in the enterocyte and colonocyte emerged (FIG. 4).
The used concentration of the cannabinoids (8 μM) corresponds to a quantity equal to […] in the extracts at a concentration of 100 μg/mL.
Based on the results obtained, the effects of the different extracts were evaluated using the pro-inflammatory stimulation consisting of 10 ng/mL IFNγ and 10 ng/mL IL-1β.
as §2

[1] = tested on: human microbiota of fecal origin; test: Prebiotic effect: butyric acid (SCFA) production after fecal fermentation; conditions: for butyric acid (SCFA) production, Mean (n = 4): LC-MS analysis, human microbiota of fecal origin
Protocol: In the last phase of the project, the prebiotic effect of the extracts 5 and 6 towards enteric bacterial strains was evaluated by means of fecal fermentation followed by gene analysis of selected strains.
Following fermentation of the extracts, the level of butyric acid produced by the intestinal flora was measured as an indicator of SCFA production. The reliability of the quantitative analysis was reinforced by two different techniques, namely an ELISA assay and mass spectrometry.
Table 2 below reports the prebiotic effect of the extracts 5 and 6 subjected to intestinal digestion (5d, 6d) and of the cannabinoids (CBD, CBG) in terms of induction of butyric acid (SCFA) production by the human microbiota of fecal origin. The result is expressed in μg/mL (LC-MS analysis).

NF-κB = conditions: human HaCaT keratinocytes; micromolar concentrations; DOI: 10.1002/ptr.6400; cited from earlier work
[2] = tested on: undifferentiated CaCo-2 cells (colonocytes); test: Cytotoxicity / cell viability (MTT) in colonocytes
Protocol: Firstly, the cytotoxicity of the extracts in the undifferentiated CaCo-2 cells (colonocytes) at 100 μg/mL was evaluated.
In the first phase of the work, the combination of IL-1β (10 ng/ml) and IFN-γ (10 ng/mL) was selected as pro-inflammatory stimulation. During the third experimental phase, the cytotoxicity of the extracts in both colonocytes and enterocytes was compared, using this pro-inflammatory cocktail.

CXCL-9, CXCL-10 = test: Release of inflammatory mediators (CXCL-9, CXCL-10) by the enterocyte; type: cell-based, human; conditions: enterocyte model; IL-1β/IFN-γ; extracts subjected to digestion 100 μg/mL, cannabinoids 8 μM
Protocol: as §1, with “FIG. 19:” for “FIGS. 18A, 18B, 18C and 18D:”, “CXCL-10)” for “CXCL-10, CCL-20, IL-15)”, “enterocyte.” for “colonocyte.”
The same was highlighted with the use of pure cannabinoids. In analogy with the colonocyte, the release of IL-15 was found not relevant in the enterocyte model, compared to an increase at the transcriptional level.

CCL-20 = CCL-20 release by the colonocyte (ELISA); type: cell-based, human; conditions: IL-1β/IFN-γ, extracts subjected to digestion 100 μg/mL, cannabinoids 8 μM
Protocol: as §1, §2

[3] = tested on: NF-κB transcription factor; test: NF-κB driven transcription, luciferase reporter plasmid in colonocytes; type: cell-based, human; conditions: 10 ng/mL IFNγ and 10 ng/mL IL-1β, 6 hours, extracts 100 μg/mL, cannabinoids 8 μM
Text: The use of this promoter allows the effect of the extracts/active molecules on transcription driven by this transcription factor to be observed.

Row | Compound | CXCL-9 release (CXCL-9) | CXCL-10 release (CXCL10) | CXCL10 secretion (CXCL10) | butyric acid (SCFA) production, Mean (n = 4) [1] | effect on NF-κB transcription factor (NF-κB) | cell viability / cytotoxicity (MTT) ([2]; 10 ng/mL IFNγ and 10 ng/mL IL-1β, 24 hours, extracts 100 μg/mL, cannabinoids 8 μM) | reduction in viability (MTT) ([2]; IL-1β/IFN-γ, 8 μM) | release of inflammatory mediators (CXCL-9, CXCL-10) | CCL-20 release (CCL-20) | NF-κB driven transcription [3] | increase in butyric acid levels ([1]; fecal fermentation)
1 | C=C(C)[C@@H]1CCC(C)=C[C@H]1c1c(O)cc(CCCCC)cc1O [CBD, cannabidiol] | more or less marked inhibitory effect on all the mediators | more or less marked inhibitory effect on all the mediators | reduced CXCL10 secretion; also recorded: more active than CBG | 212.20 µg/mL | inhibitory effect | slight reduction in cell viability | −25% | never showed inhibitory effects | more or less marked inhibitory effect on all the mediators | – | –
2 | CCCCCc1cc(O)c(C/C=C(\C)CCC=C(C)C)c(O)c1 [CBG, cannabigerol] | participate in the inhibitory activity | participate in the inhibitory activity | reduced CXCL10 secretion | 173.54 µg/mL | – | – | – | never showed inhibitory effects | – | more active than CBD | –
3 | Inulin | – | – | – | 638.87 µg/mL | – | – | – | – | – | – | 5 times

Reference: patent US20260158092A1, “COMPOSITION COMPRISING AT LEAST ONE CANNABIS EXTRACT FOR USE IN THE TREATMENT OF AN INFLAMMATORY BOWEL DISEASE” (LINNEA SA, priority 2022, published 2026)
